Calls of active or inactive are those of the source.
What was measured:
[1] = HEp-2 cell cytotoxicity, dose response, cytotoxicity control for RSV inhibitor project, HTS (AID 2410); type: functional; settings: human respiratory syncytial virus
[2] = test system: Vero; test: cells; type: functional, cell-based; settings: Chlorocebus sabaeus
[3] = cells
[4] = biological target: Oxytocin receptor (Homo sapiens, UniProt P30559); test: Fluorescence-based cell-based high throughput dose response assay for agonists of the Oxytocin Receptor (OXTR). [Related pubchem assays: 2435 (Primary screen (OXTR agonists in singlicate)), 434991 (Counterscreen (V1R agonists in triplicate)), 2482 (Summary (OXTR agonists)), 434963 (Confirmation screen (OXTR agonists in triplicate))]; type: functional
Oxytocin receptor, sequence (P30559 whole entry): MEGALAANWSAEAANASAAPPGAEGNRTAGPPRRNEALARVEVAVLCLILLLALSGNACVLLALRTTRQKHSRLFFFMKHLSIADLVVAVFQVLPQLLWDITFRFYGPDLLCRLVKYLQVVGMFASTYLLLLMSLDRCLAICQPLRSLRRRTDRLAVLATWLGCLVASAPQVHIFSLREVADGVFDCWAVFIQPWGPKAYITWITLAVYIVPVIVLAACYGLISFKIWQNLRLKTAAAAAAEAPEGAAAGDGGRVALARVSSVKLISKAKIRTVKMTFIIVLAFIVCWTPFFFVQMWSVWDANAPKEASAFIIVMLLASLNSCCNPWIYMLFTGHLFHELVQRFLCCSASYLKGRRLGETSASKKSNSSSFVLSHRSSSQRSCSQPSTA

[5] = biological target: Vasopressin V1a receptor (Homo sapiens, UniProt P37288); test: Counterscreen for Oxytocin Receptor (OXTR) agonists: Fluorescence-based cell-based high throughput dose response assay to identify agonists of the vasopressin 1 receptor (V1R). [Related pubchem assays: 2435 (Primary screen (OXTR agonists in singlicate)), 434991 (Counterscreen (V1R agonists in triplicate)), 2482 (Summary (OXTR agonists)) …; type: functional
Vasopressin V1a receptor, sequence (P37288 whole entry): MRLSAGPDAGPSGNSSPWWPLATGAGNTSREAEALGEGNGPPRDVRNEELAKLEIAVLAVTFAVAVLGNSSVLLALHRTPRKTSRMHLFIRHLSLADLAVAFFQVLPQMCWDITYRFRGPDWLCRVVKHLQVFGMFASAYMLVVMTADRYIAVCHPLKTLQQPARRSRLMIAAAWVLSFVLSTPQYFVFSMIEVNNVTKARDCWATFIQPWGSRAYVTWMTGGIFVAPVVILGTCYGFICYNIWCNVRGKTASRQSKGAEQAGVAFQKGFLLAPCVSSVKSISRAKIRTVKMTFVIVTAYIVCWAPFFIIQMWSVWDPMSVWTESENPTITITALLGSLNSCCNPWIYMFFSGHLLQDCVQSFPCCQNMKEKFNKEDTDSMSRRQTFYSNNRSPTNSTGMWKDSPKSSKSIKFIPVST

[6] = test system: Streptococcus; test: Luminescence Microorganism-Based Dose Response Follow up to Identify Compounds Cytotoxic to Streptococcus. [Related pubchem assays: 1677 (Project Summary), 1915, 1914, 1902 (Retest at Dose), 1900 (Counter Screen), 1662 (Primary HTS)]; type: functional, organism-based
[7] = biological target: Scavenger receptor class B member 1 (Mus musculus, UniProt Q61009); test: inhibitors of SR-BI mediated HDL lipid uptake, dose response, ldlA[mSR-BI] cells, fluorescence, cherry pick (AID 493194); type: functional, cell-based;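 note: cellular uptake of fluorescent DiI-labeled HDL measured as cell fluorescence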
Scavenger receptor class B member 1, sequence (Q61009 whole entry): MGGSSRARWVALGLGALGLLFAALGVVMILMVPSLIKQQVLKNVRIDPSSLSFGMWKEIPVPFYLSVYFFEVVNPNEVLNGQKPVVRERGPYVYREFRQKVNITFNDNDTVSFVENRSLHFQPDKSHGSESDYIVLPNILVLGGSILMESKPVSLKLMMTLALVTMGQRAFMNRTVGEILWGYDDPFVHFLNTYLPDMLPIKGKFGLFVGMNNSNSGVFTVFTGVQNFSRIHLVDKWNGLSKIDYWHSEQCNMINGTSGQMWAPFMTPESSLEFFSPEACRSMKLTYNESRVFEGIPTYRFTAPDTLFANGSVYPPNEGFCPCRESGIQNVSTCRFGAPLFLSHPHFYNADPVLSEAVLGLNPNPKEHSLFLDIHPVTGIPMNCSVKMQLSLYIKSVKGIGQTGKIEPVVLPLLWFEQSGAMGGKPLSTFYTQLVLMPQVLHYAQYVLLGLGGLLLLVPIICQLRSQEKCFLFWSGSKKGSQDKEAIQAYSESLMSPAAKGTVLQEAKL

[8] = biological target: T1, Eukaryotic translation initiation factor 2-alpha kinase 3 (Homo sapiens, UniProt Q9NZJ5); test: Dose response cell-based high-throughput screening assay to measure PERK inhibition. [Related pubchem assays: 1416 ]; type: functional
T1 sequence (Q9NZJ5 whole entry): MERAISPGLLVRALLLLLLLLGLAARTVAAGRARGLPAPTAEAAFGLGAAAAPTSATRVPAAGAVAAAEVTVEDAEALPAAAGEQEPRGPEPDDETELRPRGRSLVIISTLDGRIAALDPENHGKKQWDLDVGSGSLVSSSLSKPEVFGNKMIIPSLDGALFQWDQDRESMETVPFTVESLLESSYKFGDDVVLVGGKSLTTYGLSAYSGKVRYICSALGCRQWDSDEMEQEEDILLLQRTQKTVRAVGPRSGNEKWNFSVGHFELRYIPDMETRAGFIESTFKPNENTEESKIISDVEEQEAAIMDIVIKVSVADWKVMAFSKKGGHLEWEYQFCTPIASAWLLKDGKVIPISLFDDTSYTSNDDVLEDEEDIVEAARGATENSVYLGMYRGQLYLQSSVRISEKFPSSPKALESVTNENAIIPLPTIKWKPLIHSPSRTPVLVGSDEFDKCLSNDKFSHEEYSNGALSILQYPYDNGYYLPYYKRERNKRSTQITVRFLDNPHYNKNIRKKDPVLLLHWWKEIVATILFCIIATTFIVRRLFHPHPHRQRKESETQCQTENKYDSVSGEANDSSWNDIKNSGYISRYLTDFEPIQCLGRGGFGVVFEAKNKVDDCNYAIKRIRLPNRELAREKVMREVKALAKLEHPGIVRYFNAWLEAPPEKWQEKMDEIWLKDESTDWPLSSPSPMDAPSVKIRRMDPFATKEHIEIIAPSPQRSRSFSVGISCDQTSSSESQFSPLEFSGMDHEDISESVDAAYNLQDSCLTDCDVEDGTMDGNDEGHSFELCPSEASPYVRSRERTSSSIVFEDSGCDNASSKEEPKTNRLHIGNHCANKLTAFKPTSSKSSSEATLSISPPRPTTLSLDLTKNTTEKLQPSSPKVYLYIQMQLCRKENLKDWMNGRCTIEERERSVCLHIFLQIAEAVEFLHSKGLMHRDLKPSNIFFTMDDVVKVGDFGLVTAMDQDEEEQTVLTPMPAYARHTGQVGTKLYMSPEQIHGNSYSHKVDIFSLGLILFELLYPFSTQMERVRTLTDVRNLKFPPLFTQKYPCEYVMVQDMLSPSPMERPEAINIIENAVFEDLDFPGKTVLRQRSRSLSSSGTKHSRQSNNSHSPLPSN

[9] = biological target: T1, Eukaryotic translation initiation factor 2-alpha kinase 3; test: Counterscreen assay for PERK inhibitors: Dose response cell-based high throughput screening assay to measure inhibition of PERK at 6 hours. [Related pubchem assays: 1522, 1416 ]; type: functional
[10] = biological target: Luciferin 4-monooxygenase (Photinus pyralis, UniProt P08659); test: Counter Screen for Luciferase-based Assay Positives. [Related pubchem assays: 620, 618, 411 ]
Luciferin 4-monooxygenase, sequence (P08659 whole entry): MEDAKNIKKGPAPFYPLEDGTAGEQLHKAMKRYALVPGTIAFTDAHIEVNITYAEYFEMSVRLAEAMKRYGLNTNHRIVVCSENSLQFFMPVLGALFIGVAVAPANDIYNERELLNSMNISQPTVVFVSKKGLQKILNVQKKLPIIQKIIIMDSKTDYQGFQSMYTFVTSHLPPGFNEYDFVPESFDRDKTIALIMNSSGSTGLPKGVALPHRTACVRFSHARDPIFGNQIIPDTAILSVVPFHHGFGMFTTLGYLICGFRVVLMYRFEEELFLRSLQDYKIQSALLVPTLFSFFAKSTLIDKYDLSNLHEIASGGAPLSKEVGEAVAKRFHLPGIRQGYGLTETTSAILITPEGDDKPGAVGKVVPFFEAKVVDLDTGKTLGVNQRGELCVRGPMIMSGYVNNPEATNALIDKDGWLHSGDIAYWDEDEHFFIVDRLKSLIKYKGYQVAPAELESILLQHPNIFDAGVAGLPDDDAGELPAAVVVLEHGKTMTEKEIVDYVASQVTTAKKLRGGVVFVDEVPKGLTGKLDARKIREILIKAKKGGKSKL

[11] = biological target: Genome polyprotein (dengue virus type 2, UniProt P29990); test: Dengue-2 NS5 methyltransferase inhibitors, primary screen, biochemical, confirmation dose response (AID 588689); type: functional
Genome polyprotein, sequence (P29990 2492-3391 limits assumed): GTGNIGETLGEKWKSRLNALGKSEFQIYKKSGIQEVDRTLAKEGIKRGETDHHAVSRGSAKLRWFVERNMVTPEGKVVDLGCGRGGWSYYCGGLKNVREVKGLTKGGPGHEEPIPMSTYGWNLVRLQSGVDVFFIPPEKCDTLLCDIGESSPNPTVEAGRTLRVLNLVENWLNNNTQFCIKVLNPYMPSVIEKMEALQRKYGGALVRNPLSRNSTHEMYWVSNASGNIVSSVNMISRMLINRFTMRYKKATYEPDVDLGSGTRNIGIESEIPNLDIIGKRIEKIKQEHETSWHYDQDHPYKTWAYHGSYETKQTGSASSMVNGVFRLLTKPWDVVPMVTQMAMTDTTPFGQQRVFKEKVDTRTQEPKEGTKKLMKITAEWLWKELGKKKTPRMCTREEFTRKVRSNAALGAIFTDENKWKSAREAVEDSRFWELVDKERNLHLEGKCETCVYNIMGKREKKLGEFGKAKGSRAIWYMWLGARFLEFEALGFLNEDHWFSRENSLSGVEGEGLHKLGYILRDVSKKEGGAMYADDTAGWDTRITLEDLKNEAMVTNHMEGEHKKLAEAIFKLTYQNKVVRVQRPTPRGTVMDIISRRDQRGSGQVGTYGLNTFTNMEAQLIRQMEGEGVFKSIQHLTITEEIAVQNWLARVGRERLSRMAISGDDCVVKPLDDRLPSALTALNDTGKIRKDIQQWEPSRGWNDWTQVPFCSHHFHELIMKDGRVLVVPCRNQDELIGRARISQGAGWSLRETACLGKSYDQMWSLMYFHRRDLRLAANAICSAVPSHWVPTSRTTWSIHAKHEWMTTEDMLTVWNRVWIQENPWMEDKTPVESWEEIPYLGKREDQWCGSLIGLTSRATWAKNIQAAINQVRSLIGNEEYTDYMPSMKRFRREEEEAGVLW

[12] = biological target: T2, Microphthalmia-associated transcription factor (Homo sapiens, UniProt O75030); test: TRPM1 promoter luciferase signal decrease, dose response, MITF inhibitor project, cell-based, SK-MEL-5, cherry-picked, set 3 (AID 493073); type: functional
T2 sequence (O75030 whole entry): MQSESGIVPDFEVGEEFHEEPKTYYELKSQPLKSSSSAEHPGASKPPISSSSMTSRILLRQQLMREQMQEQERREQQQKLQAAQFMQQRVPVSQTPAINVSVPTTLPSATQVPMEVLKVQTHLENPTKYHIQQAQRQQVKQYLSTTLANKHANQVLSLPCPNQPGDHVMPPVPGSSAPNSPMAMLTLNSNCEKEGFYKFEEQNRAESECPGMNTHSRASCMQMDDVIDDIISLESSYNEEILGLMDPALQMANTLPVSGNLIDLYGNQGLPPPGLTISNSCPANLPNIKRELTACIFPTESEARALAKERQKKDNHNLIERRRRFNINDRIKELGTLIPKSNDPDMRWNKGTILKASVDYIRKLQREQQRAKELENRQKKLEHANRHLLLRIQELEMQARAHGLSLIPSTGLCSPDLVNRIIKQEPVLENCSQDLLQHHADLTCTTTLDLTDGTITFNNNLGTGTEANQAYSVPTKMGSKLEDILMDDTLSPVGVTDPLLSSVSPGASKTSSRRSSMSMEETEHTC

[13] = biological target: Glyceraldehyde-3-phosphate dehydrogenase (Homo sapiens, UniProt P04406)
Glyceraldehyde-3-phosphate dehydrogenase, sequence (P04406 whole entry): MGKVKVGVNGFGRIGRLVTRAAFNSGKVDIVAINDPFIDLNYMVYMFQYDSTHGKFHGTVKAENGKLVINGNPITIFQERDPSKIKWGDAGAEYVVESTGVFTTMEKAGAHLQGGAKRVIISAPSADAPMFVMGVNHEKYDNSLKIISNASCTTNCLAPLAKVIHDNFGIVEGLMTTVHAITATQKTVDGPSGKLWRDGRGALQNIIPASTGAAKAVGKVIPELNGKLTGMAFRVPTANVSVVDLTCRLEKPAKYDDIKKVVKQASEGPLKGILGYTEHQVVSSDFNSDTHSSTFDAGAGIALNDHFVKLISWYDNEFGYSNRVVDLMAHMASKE

[14] = biological target: Intestinal-type alkaline phosphatase (Homo sapiens, UniProt P09923); test: Dose Response confirmation of uHTS hits from a small molecule inhibitors of human intestinal alkaline phosphatase via a luminescent assay. [Related pubchem assays (depositor defined):AID2544, AID2574]; type: functional
Intestinal-type alkaline phosphatase, sequence (P09923 whole entry): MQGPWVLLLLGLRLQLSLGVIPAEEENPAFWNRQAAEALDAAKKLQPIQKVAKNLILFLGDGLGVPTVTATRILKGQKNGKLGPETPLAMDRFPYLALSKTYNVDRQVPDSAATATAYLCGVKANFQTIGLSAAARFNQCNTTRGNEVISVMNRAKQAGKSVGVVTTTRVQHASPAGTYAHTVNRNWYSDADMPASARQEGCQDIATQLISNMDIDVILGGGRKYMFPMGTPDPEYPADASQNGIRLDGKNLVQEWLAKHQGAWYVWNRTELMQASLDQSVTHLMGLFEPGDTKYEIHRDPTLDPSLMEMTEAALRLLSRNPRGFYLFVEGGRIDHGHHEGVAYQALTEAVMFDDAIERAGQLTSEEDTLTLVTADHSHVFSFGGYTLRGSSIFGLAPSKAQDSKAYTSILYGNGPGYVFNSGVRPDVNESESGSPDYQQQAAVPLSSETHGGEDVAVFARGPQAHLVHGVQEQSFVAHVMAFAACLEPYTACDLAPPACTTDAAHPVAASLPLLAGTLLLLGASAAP

[15] = biological target: Lysosomal acid glucosylceramidase (Homo sapiens, UniProt P04062); test: Dose response cell-based high throughput screening assay to identify enhancers of beta-glucosidase activity. [Related pubchem assays: 784 ]; type: functional
Lysosomal acid glucosylceramidase, sequence (P04062 whole entry): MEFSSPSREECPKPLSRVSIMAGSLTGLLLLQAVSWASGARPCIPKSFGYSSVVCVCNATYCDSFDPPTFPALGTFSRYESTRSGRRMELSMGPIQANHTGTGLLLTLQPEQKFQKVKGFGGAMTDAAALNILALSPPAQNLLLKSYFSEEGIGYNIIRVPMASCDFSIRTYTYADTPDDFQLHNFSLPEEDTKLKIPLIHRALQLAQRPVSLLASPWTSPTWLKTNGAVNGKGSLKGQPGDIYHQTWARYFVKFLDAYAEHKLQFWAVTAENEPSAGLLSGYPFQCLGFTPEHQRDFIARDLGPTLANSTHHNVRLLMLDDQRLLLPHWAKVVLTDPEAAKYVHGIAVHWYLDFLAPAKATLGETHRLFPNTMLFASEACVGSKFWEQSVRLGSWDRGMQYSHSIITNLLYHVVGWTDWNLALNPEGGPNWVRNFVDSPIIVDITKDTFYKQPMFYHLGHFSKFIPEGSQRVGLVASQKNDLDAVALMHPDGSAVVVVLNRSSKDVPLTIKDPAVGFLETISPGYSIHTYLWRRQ

[16] = biological target: FAD-linked sulfhydryl oxidase ALR (Homo sapiens, UniProt P55789); test: inhibitors of human ALR sulfhydryl oxidase, dose response, biochemical, H2O2 detection, luminescence, cherry-pick (AID 493248)
FAD-linked sulfhydryl oxidase ALR, sequence (P55789 whole entry): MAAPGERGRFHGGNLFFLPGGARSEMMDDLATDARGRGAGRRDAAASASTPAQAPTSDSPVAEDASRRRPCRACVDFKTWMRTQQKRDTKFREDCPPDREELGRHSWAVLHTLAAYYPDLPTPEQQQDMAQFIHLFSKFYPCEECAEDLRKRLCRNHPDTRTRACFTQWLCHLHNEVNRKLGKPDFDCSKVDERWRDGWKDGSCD

[17] = biological target: Phospholipase A2 (Homo sapiens, UniProt P04054); type: functional;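 note: confirmatory dose-response counterscreen on phospholipase A2, testing hits that came from an ultra-high-throughput screen for ATG4B inhibitors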
Phospholipase A2, sequence (P04054 whole entry): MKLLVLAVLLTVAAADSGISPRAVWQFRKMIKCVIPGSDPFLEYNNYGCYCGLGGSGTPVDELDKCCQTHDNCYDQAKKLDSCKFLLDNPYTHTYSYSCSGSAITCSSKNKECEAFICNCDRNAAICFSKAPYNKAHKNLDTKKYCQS

[18] = biological target: T3, High affinity choline transporter 1 (Homo sapiens, UniProt Q9GZV3); test: CHT inhibitors, dose response, cell-based, 5-point CRC, membrane potential dye (AID 504840); type: functional
T3 sequence (Q9GZV3 whole entry): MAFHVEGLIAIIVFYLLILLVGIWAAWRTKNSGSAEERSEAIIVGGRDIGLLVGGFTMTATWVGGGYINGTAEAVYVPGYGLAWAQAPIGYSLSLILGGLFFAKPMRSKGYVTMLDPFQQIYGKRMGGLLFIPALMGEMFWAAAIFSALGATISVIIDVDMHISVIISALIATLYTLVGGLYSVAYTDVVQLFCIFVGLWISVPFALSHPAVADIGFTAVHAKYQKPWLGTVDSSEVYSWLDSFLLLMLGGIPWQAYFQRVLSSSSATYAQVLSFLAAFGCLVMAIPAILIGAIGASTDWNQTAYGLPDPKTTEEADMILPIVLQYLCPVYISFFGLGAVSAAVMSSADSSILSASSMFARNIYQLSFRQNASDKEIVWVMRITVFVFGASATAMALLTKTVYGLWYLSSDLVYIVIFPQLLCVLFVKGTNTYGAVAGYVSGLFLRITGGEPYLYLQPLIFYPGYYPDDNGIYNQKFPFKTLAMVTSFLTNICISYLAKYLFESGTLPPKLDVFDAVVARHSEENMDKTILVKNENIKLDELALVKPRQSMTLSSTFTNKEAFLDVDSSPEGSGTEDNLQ

[19] = HIV-1 Env-mediated cell fusion inhibitors, dose response, CCR5-tropic Env (AID 2279); type: functional
[20] = biological target: T4, Cysteine protease ATG4B (Homo sapiens, UniProt Q9Y4P1); type: functional;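 note: Fluorescence-based dose-response confirmation assay measuring inhibition of ATG4B activity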
T4 sequence (Q9Y4P1 whole entry): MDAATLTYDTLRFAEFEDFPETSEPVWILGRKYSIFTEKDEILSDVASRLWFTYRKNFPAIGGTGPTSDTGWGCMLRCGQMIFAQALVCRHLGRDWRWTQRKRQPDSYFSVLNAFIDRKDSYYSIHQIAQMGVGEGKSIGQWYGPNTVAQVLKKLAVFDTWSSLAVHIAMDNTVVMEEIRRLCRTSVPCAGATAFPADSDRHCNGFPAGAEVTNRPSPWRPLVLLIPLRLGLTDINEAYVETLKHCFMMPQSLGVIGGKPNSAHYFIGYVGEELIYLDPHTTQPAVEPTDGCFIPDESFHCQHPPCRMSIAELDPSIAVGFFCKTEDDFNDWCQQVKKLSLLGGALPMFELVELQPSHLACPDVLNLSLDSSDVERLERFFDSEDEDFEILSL

[21] = NIH-3T3 fibroblast cytotoxicity, dose response, cytotoxicity control, cell-based, fluorescence, Alamar Blue, secondary assay (AID 2327); type: functional;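 note: NIH-3T3 mouse fibroblasts cultured with fluconazole at 8 µg/mL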
[22] = C. albicans growth with fluconazole, confirmation, fluorescence, retest (AID 2467); type: functional, cell-based

With `Cc1ccc(CSCC(=O)Nc2ccccc2C(=O)O)cc1` as the molecule, how does the CC50 [1] read?
Its CC50 is 21.9 µM (active).

And the IC50 [2]?
Its IC50 is 12.2 µM (active).

And the IC50 [3]?
Its IC50 is 9.39 µM (active).

Which results are given for `COC(C(=O)Nc1ccc(S(=O)(=O)Nc2ccc(F)cc2)cc1)c1ccccc1` (stereo not drawn)?
EC50 [4]: > 29.9 µM (not active); EC50 [5]: > 29.9 µM (not active)

With `O=C(c1ccccc1C(F)(F)F)n1c2ccccc2c2ccccc21` as the molecule, how does the EC50 [6] read?
Its EC50 is > 500 µM (not active).

With `Cc1ccc(NC(=O)c2ccc3c(c2)CCN3S(C)(=O)=O)cc1C` as the molecule, how does the AC50 [7] read?
Its AC50 is 23.8 µM (active).

With `Cc1cc(C)c(NC2=NS(=O)(=O)c3ccccc32)c(C)c1` as the molecule, how does the EC50 [8] read?
Its EC50 is > 55.7 µM (not active).

What about the EC50 [9] of the same molecule?
Its EC50 is > 55.7 µM (not active).

For `O=C(NCc1cccs1)c1nc2c(nnn2Cc2ccccc2Cl)c(=O)[nH]1`, which EC50 [10] is on record?
Its EC50 is 15.4 µM (active).

What about the IC50 [11] of the same molecule?
The IC50 was 51.8 µM (active).

What about the AC50 [12] of the same molecule?
Its AC50 is 6.66 µM (active).

With `Cn1cc(NC(=O)Nc2ccc(C(F)(F)F)cc2)c(C(F)(F)F)n1` as the molecule, how does the EC50 [8] read?
The EC50 was > 55.7 µM (not active).

And the EC50 [9]?
Its EC50 is > 55.7 µM (not active).

For `NS(=O)(=O)c1ccc2[nH]c3c(c2c1)CCCC3`, which IC50 [13] is on record?
The IC50 was > 100 µM (not active).

Which IC50 [14] does the source give for `N#Cc1cc(Oc2ccccc2)c(-n2nnc3ccccc32)cc1C#N` here?
Its IC50 is > 100 µM (inactive).

Which EC50 [15] does the source give for `COCc1cc(C)nc(NC2CCCCC2)c1C#N` here?
Its EC50 is > 50 µM (not active).

Which results are given for `COc1ccc(/C=C2/SC(=O)N(CCCCCC(=O)Nc3ccccc3C(=O)O)C2=S)cc1`?
AC50 [16]: 3.05 µM (active); IC50 [17]: 5.25 µM (active); IC50 [18]: 13.8 µM (active); IC50 [19]: > 50 µM (active); IC50 [20]: 14.5 µM (active)

Which EC50 [21] does the source give for `O=C(c1ccc(C(=O)N2CCCc3ccccc32)s1)N1CCCc2ccccc21` here?
The EC50 was 20.7 µM (inconclusive).

What about the CC50 [1] of the same molecule?
The CC50 was > 50 µM (active).

What about the EC50 [22] of the same molecule?
Its EC50 is 2.45 µM (active).

What about the IC50 [3] of the same molecule?
Its IC50 is > 50 µM (active).

Which results are given for `CC(Sc1ccc(Cl)cc1)C(=O)Nc1ccc(S(=O)(=O)N2CCOCC2)cc1` (stereo not drawn)?
EC50 [4]: > 29.9 µM (not active); EC50 [5]: > 29.9 µM (not active)

Source: ChEMBL document CHEMBL1201862, “PubChem BioAssay data set” (2004)
